Reference: the CheMixHub viscosity set

Assay: xn = mol fraction of the nth substance listed

CCC(=O)O + CCC(C)=O
viscosity [mPa·s], 101 kPa
Conditions | x2 = 0.0847 | x2 = 0.1723 | x2 = 0.2585 | x2 = 0.357 | x2 = 0.4544 | x2 = 0.5554 | x2 = 0.6602 | x2 = 0.7691 | x2 = 0.8822
293.15 K | 1.038 | 0.9722 | 0.9093 | 0.8393 | 0.7718 | 0.7038 | 0.6354 | 0.5665 | 0.4974
303.15 K | 0.9022 | 0.846 | 0.7921 | 0.7324 | 0.6751 | 0.6177 | 0.556 | 0.5027 | 0.4455
313.15 K | 0.7975 | 0.7494 | 0.7031 | 0.6516 | 0.6019 | 0.5519 | 0.5015 | 0.4508 | 0.4

CCC(=O)O + CCO
308.15 K, 101 kPa
Conditions | viscosity [mPa·s]
x1 = 0.0674 | 1.035
x1 = 0.1373 | 1.062
x1 = 0.2156 | 1.095
x1 = 0.2983 | 1.125
x1 = 0.3898 | 1.151
x1 = 0.4885 | 1.167
x1 = 0.5987 | 1.16
x1 = 0.7173 | 1.119
x1 = 0.7834 | 1.081
x1 = 0.8532 | 1.043
x1 = 0.9225 | 0.9581

Nc1cccc(Cl)c1 + CCCCOCCO
303.15 K, 101 kPa
Conditions | viscosity [mPa·s]
x1 = 0.1347 | 2.958
x1 = 0.2158 | 3.022
x1 = 0.3353 | 3.099
x1 = 0.4394 | 3.15
x1 = 0.5555 | 3.192
x1 = 0.6554 | 3.214
x1 = 0.7157 | 3.226
x1 = 0.8263 | 3.239
x1 = 0.912 | 3.242

CC12CCC(CC1)C(C)(C)O2 + Cc1ccc(O)cc1
viscosity [mPa·s], 101 kPa
Conditions | x1 = 0.065 | x1 = 0.1353 | x1 = 0.2115 | x1 = 0.2943 | x1 = 0.3849 | x1 = 0.4841 | x1 = 0.5935 | x1 = 0.7145 | x1 = 0.8492
303.15 K | 10.05 | 10.4 | 10.3 | 9.855 | 8.969 | 7.588 | 6 | 4.552 | 3.36
308.15 K | 8.061 | 8.368 | 8.359 | 8.056 | 7.332 | 6.325 | 5.03 | 3.799 | 2.854
313.15 K | 6.612 | 6.841 | 6.808 | 6.617 | 6.12 | 5.364 | 4.313 | 3.244 | 2.467

C1C[C@@H]2[C@H]3CC[C@H](C3)[C@@H]2C1 + CC(C)OC(C)C
viscosity [mPa·s], 101.33 kPa
Conditions | x2 = 0.1 | x2 = 0.2043 | x2 = 0.3168 | x2 = 0.4 | x2 = 0.4997 | x2 = 0.5937 | x2 = 0.703 | x2 = 0.8066 | x2 = 0.9085
293.15 K | 2.279 | 1.725 | 1.309 | 1.074 | 0.865 | 0.719 | 0.592 | 0.493 | 0.412
298.15 K | 2.062 | 1.572 | 1.206 | 0.995 | 0.802 | 0.666 | 0.556 | 0.473 | 0.391
303.15 K | 1.88 | 1.441 | 1.116 | 0.926 | 0.76 | 0.631 | 0.532 | 0.454 | 0.376
308.15 K | 1.712 | 1.324 | 1.026 | 0.861 | 0.706 | 0.593 | 0.497 | 0.426 | 0.357
313.15 K | 1.573 | 1.226 | 0.95 | 0.799 | 0.659 | 0.558 | 0.469 | 0.402 | 0.338

CCCCCCCCCCCCCC[P+](CCCCCC)(CCCCCC)CCCCCC.c1c[n-]nn1 + CCCCCCCCCCCCCC[P+](CCCCCC)(CCCCCC)CCCCCC.O=S(=O)([N-]S(=O)(=O)C(F)(F)F)C(F)(F)F
viscosity [mPa·s], 100 kPa
Conditions | x1 = 0.098 | x1 = 0.201 | x1 = 0.3 | x1 = 0.401 | x1 = 0.5 | x1 = 0.599 | x1 = 0.7 | x1 = 0.797 | x1 = 0.901
293.15 K | 425 | 473 | 495 | 465 | 502 | 539 | 533 | 547 | 553
298.15 K | 313 | 348 | 362 | 338 | 363 | 390 | 385 | 393 | 397
303.15 K | 236 | 261 | 270 | 251 | 270 | 288 | 284 | 289 | 291
308.15 K | 181 | 200 | 207 | 191 | 204 | 218 | 214 | 217 | 220
313.15 K | 142 | 156 | 160 | 148 | 158 | 168 | 165 | 167 | 168
318.15 K | 112 | 124 | 127 | 117 | 124 | 132 | 129 | 131 | 132
323.15 K | 91 | 100 | 102 | 94 | 100 | 106 | 103 | 104 | 106

C1C[C@@H]2[C@H]3CC[C@H](C3)[C@@H]2C1 + CC(C)CO
viscosity [mPa·s], 100 kPa
Conditions | x1 = 0.1002 | x1 = 0.2 | x1 = 0.3002 | x1 = 0.4003 | x1 = 0.4998 | x1 = 0.6003 | x1 = 0.7002 | x1 = 0.7994 | x1 = 0.8979
293.15 K | 3.668 | 3.397 | 3.217 | 3.04 | 2.883 | 2.814 | 2.769 | 2.78 | 2.848
298.15 K | 3.135 | 2.923 | 2.772 | 2.644 | 2.541 | 2.489 | 2.47 | 2.493 | 2.563
303.15 K | 2.692 | 2.526 | 2.408 | 2.318 | 2.247 | 2.219 | 2.219 | 2.249 | 2.323
308.15 K | 2.325 | 2.196 | 2.108 | 2.044 | 1.998 | 1.99 | 2.003 | 2.037 | 2.113
313.15 K | 2.02 | 1.92 | 1.856 | 1.814 | 1.787 | 1.79 | 1.814 | 1.854 | 1.929
318.15 K | 1.764 | 1.689 | 1.645 | 1.616 | 1.607 | 1.618 | 1.646 | 1.695 | 1.77
323.15 K | 1.551 | 1.494 | 1.465 | 1.448 | 1.452 | 1.471 | 1.507 | 1.555 | 1.627

CCCOC(=O)CC + CCCCCCCCCCCCCC
298.15 K, 101.33 kPa
Conditions | viscosity [mPa·s]
x2 = 0.0774 | 0.704
x2 = 0.1347 | 0.757
x2 = 0.2041 | 0.828
x2 = 0.2829 | 0.915
x2 = 0.3321 | 0.972
x2 = 0.4571 | 1.13
x2 = 0.5528 | 1.263
x2 = 0.6895 | 1.473
x2 = 0.8219 | 1.706
x2 = 0.9084 | 1.878

Nc1cccc(Cl)c1 + CC(=O)c1ccccc1
viscosity [mPa·s], 100 kPa
Conditions | x1 = 0.0807 | x1 = 0.1719 | x1 = 0.2629 | x1 = 0.3608 | x1 = 0.4656 | x1 = 0.5646 | x1 = 0.6658 | x1 = 0.7765 | x1 = 0.8859
303.15 K | 1.647 | 1.812 | 1.993 | 2.206 | 2.459 | 2.723 | 3.022 | 3.386 | 3.788
308.15 K | 1.538 | 1.688 | 1.85 | 2.041 | 2.266 | 2.5 | 2.764 | 3.084 | 3.436
313.15 K | 1.38 | 1.515 | 1.66 | 1.83 | 2.031 | 2.239 | 2.474 | 2.758 | 3.069
318.15 K | 1.218 | 1.337 | 1.466 | 1.616 | 1.793 | 1.976 | 2.183 | 2.433 | 2.707

CC(=O)C=C(C)C + CCCCCOC(C)=O
298.15 K, 101 kPa
Conditions | viscosity [mPa·s]
x1 = 0.11 | 0.7593
x1 = 0.167 | 0.7461

OC[C@@H](O)[C@@H](O)CO + O
viscosity [mPa·s], 101.3 kPa
Conditions | x1 = 0.003586 | x1 = 0.007154 | x1 = 0.01069 | x1 = 0.01421 | x1 = 0.0177 | x1 = 0.02631 | x1 = 0.03478 | x1 = 0.0431 | x1 = 0.05128
293.15 K | – | – | – | 1.25 | – | 1.53 | 1.78 | 2.04 | 2.32
303.15 K | 0.84 | 0.89 | 0.95 | 0.99 | 1.07 | 1.18 | 1.36 | 1.54 | 1.73
313.15 K | – | 0.71 | 0.76 | 0.79 | 0.85 | 0.94 | 1.05 | 1.18 | 1.33
323.15 K | 0.57 | 0.6 | 0.64 | 0.66 | 0.71 | 0.77 | 0.87 | 0.95 | 1.06
